Measured values taken from patent US6096734A, “Photosensitizers for sensitizing cells” (The Secretary of State for Defence in Her Britannic …, priority 1993, dated 2000).
Read-outs that look alike come from different tables or passages of the source.

Key:
[1] = tested on: MS-2 fibrosarcoma; test: Phototherapeutic studies: tumour response to PDT (visual observation, electron microscopy); assay type: in vivo, female Balb/c mice
Method: (§1) In this investigation female Balb/c mice 20-22 g bearing a MS-2 fibrosarcoma intramuscularly implanted into the hind right leg were used as an animal model. On the 7th day after transplantation when the tumour diameter was 0.6-0.8 cm and no spontaneous necrosis could be detected, the mice were injected with 1.2 or 2.4 mg/kg ZnODPc incorporated into Cremophor emulsions. The preparation and characterisation of such emulsions has been described by L. Polo et al Cancer Lett. 66: 217-223, 1992. The amount of injected ZnODPc was estimated by diluting a known aliquot of the phthalocyanine-containing emulsion into THF and reading the absorbance at 701 nm (molar absorption coefficient 2.01×10^5 dm^3 mol^-1 cm^-1).
The tumour bearing mice were injected with 2.4 mg/kg ZnODPc and after 24 h were irradiated by 600-700 nm light which was isolated from the emission of a quartz-halogen lamp (Teclas, Lugano Switzerland) by optical filtering. The light beam was focussed into a bundle of optical fibres, whose tip was positioned at a 1 cm distance from the tumour surface. The lamp was operated at 230 mW/cm^2 for a total delivered light dose of 400 J/cm^2.
The tumour response was analyzed by visual observation, as well as by electron microscopy studies on tumour specimens taken at 6 h and 24 h after the end of the PDT. The procedure for the preparation of the samples and ultra structural determinations was performed as described by Milanesi et al. Br. J. Cancer 61: 846-850, 1990.
At the same time endocytoplasmic vacuolisation 6 is frequently observed with some completely necrotic cells and loss of the organised tissue structure.

[2] = Triplet state studies by laser flash photolysis; assay type: physicochemical; conditions: 1% pyridine in toluene, excitation 355 nm; for Triplet Quantum Yield: means of no less than four runs, compounds 8 and 9 run once
Method: (§2) Triplet state studies were carried out using laser flash photolysis. Samples were prepared in a 1% pyridine in toluene solution; by preparing such a solution then it is believed that aggregation of the phthalocyanine cores is avoided. The solution was prepared so that an optical density of 0.2-0.3 at the excitation wavelength was obtained. Samples were irradiated by an excimer pumped dye laser at 355 nm and the transients monitored with the use of a quartz halogen lamp. Triplet quantum yields were calculated using ZnTPP and ZnPc as standards. The triplet quantum yield is the quantum yield of conversion from the excited singlet state to the triplet state.
Compound example 10 is unsubstituted zinc phthalocyanine (ZnPc); this is included in the Table for means of comparison.
The data in Table 2 are means of no less than four independent runs, except for compounds 8 and 9 which were run once.

[3] = set-up: species or system female Balb/c mice; conditions: mouse, in vivo
Method: In this investigation female Balb/c mice 20-22 g bearing a MS-2 fibrosarcoma intramuscularly implanted into the hind right leg were used as an animal model. On the 7th day after transplantation when the tumour diameter was 0.6-0.8 cm and no spontaneous necrosis could be detected, the mice were injected with 1.2 or 2.4 mg/kg ZnODPc incorporated into Cremophor emulsions. The preparation and characterisation of such emulsions has been described by L. Polo et al Cancer Lett. 66: 217-223, 1992. The amount of injected ZnODPc was estimated by diluting a known aliquot of the phthalocyanine-containing emulsion into THF and reading the absorbance at 701 nm (molar absorption coefficient 2.01×10^5 dm^3 mol^-1 cm^-1). The tumour-bearing mice were injected with 1.2 mg/kg ZnODPc in the tail vein. At 3 hours and 24 hours after administration, groups of three mice were sacrificed by prolonged exposure to ether vapours, the tumour and selected normal tissues (muscle, skin, liver and kidneys) were excised, washed with phosphate buffered saline (PBS) and assayed for the phthalocyanine content by spectrofluorimetric analysis after chemical extraction, see Reddi et al Br. J. Cancer 61: 407-411, 1990; typically a weighted amount of tissue was homogenized in 3 ml of 2% aqueous sodium dodecyl sulphate (SDS); the homegenate was incubated for 1 hour at room temperature under gentle magnetic stirring and 1 ml of the suspension was added with 2 ml of THF, centrifuged at 10 mins at 3000 rpm; the supernatant was collected and its fluorescence intensity was determined in the 670-770 nm interval (excitation at 650 nm). The fluorescence intensity was converted into ZnODPc concentration by interpolation with a calibration plot. Samples of blood were taken from the sacrificed animals, centrifuged to separate the erythocytes and the serum (50 μl) thus collected was diluted with 2% aqueous SDS (700 μl), added with 1.5 ml of THF and centrifuged for 10 mins at 3000 rpm. The ZnODPc concentration in the supernatant was determined by fluorescence spectroscopy as specified above. Special attention was focussed on the phthalocyanine content in the muscle which is the peritumoural tissue in the animal model exemplified in this study and the skin because of the frequent onset of persistent cutaneous photosensitivity in PDT patients. The determination of ZnODPc accumulation in liver and kidneys can provide useful information on the modality of its elimination from the organism. Analyses were carried out at 3 h intervals after photosensitizer injection and at 24 h which is generally considered to be the usual time interval for PDT treatment.

[4] = Spectroscopic properties of ZnODPc (absorption, fluorescence); assay type: physicochemical
Method: The fluorescence emission maximum, excited at 703 nm is at 712 nm.
as §1

[5] = Singlet oxygen generation (luminescence at 1270 nm); assay type: physicochemical
Method: as §2
The generation of singlet oxygen by the phthalocyanines was also studied. The method of detection of the singlet oxygen involved measuring the intensity of luminescence at 1270 nm, corresponding to the forbidden transition from the excited singlet back down to the ground state, with a liquid nitrogen cooled germanium detector. Aerated samples were irradiated with the same system as described for the triplet state studies. Standards used were ZnTPP, ZnPc and anthracene.
The data in Table 3 are means of no less than four independent runs, except for compounds 8 and 9 were run once.
The properties of the decomposition products arising from irradiation of the phthalocyanines were investigated.

[6] = ethanolic solution; Valduga et al 1988; cited from earlier work
[7] = irradiation conditions described, in words
[8] = Table 3, aerated samples, same system as triplet studies (1% pyridine in toluene), means of no less than four runs, compounds 8 and 9 run once

## CCCCCCCCCCc1ccc(CCCCCCCCCC)c2c1C1=NC2=Nc2c3c(CCCCCCCCCC)ccc(CCCCCCCCCC)c3c3[n]2[Zn][n]2c(c4c(CCCCCCCCCC)ccc(CCCCCCCCCC)c4c2=NC2=NC(=N3)c3c(CCCCCCCCCC)ccc(CCCCCCCCCC)c32)=N1 [Example 1, 1,4,8,11,15,18,22,25-octakis-decylphthalocyaninato-zinc]
[1]; 2.4 mg/kg, irradiated 24 h post-injection, 600-700 nm, 400 J/cm^2
  tumour growth delay compared with untreated tumour-bearing mice: significant delay in tumour growth
[1]; 6 h after irradiation, FIG. 1
  damage of blood vessels (electron microscopy): less heavily damaged
  damage of tumour cells (electron microscopy): extensive damage of tumour cells
[1]; 24 h after irradiation
  overall appearance of the tumour: deeply haemorrhagic
[1]; 24 h after irradiation, FIG. 2
  tissular damage (electron microscopy): remarkably more extensive at 24 h after irradiation
[1]; in words
  damage of cell nuclei: extensive damage of cell nuclei
  tumour damage upon photoexcitation with red light: sufficient for inducing an efficient tumour damage
[1]; [7]
  damage of blood capillaries: appreciable damage of blood capillaries
  main target of photosensitization: malignant cells appear to be the main target
[2]
  Triplet Lifetime: 50 μs
  Triplet Quantum Yield: 0.67
[3]
  accumulation in kidneys: negligible amounts
  liver concentrations: comparatively low
  presence in cutaneous districts (skin): essentially no phthalocyanine is present
  recovery from the peritumoural tissue: No detectable amount
[3]; iv, 1.2 mg/kg, 3 h
  Recovery, Kidney: 0.066 ± 0.008 μg of dye/g of tissue
  Recovery, Liver: 0.278 ± 0.053 μg of dye/g of tissue
  Recovery, Serum: 0.436 ± 0.324
  Recovery, Tumour: 0.073 μg of dye/g of tissue
[3]; iv, 1.2 mg/kg, 24 h
  Recovery, Kidney: 0.O05 ± 0.002 μg of dye/g of tissue
  Recovery, Liver: 0.673 ± 0.140 μg of dye/g of tissue
  Recovery, Serum: 0.042 ± 0.015
  Recovery, Skin: 0.008 ± 0.001 μg of dye/g of tissue
  Recovery, Tumour: 0.132 ± 0.022 μg of dye/g of tissue
[4]; THF, 701 nm
  molar absorption coefficient: 2.01×10^5 dm^3 mol^-1 cm^-1
[4]; cyclohexane
  absorption maximum: 703 nm
[4]; cyclohexane, 703 nm
  molar absorption coefficient (ε) at the absorption maximum: approximately 2.3×10^5 dm^3 mol^-1 cm^-1
[4]; cyclohexane, excited at 703 nm
  fluorescence emission maximum: 712 nm
[5]; [8]
  Singlet Oxygen Quantum Yield: 0.73
[5]; toluene/pyridine solution
  Singlet Oxygen Quantum Yield: 0.73±0.06

## CCCCCCCCCCc1ccc(CCCCCCCCCC)c2c1C1=NC2=Nc2c3c(CCCCCCCCCC)ccc(CCCCCCCCCC)c3c3[n]2[Zn][n]2c(c4c(CCCCCCCCCO)ccc(CCCCCCCCCO)c4c2=NC2=NC(=N3)c3c(CCCCCCCCCC)ccc(CCCCCCCCCC)c32)=N1 [Example 9, 1,4-Bis (9-Hydroxynonyl)-8,11,15,18,22,25-Hexadecylphthalocyaninato-Zinc]
[2]
  Triplet Quantum Yield: 0.70
[5]; [8]
  Singlet Oxygen Quantum Yield: 0.80

## [Zn+2].c1ccc2c(c1)-c1nc-2nc2[n-]c(nc3nc([n-]c4nc(n1)-c1ccccc1-4)-c1ccccc1-3)c1ccccc21 [Example 10, unsubstituted zinc phthalocyanine, reference compound]
[2]
  Triplet Quantum Yield: 0.45
[6]
  Singlet Oxygen Quantum Yield: approximately 0.4
[5]; [8]
  Singlet Oxygen Quantum Yield: 0.50
